We go through 7 compounds from ChEMBL document CHEMBL1158849, “New bioactive triterpenoids from Melia volkensii” (J Nat Prod, 1998).

What is called LC50 is the concentration lethal to half of the exposed cells or organisms.

For one data set, the system named is Aedes aegypti. Kind of data set: Cytotoxicity against yellow fever mosquitoes. Type of data set: functional.
A short description of data set [1]: Toxicity against brine shrimp larvae. It is filed as organism-based. The conditions noted are these: artemia, in vivo.
Another data set concerns MIA PaCa-2. Kind of data set: Cytotoxicity against human MIAPaCa2 cells after 7 days by MTT assay. It is filed as functional. The conditions noted are these: MIA PaCa-2, 168 h, read-out: ED50 (the source's name).
The test system of a further data set is PC-3. Kind of data set: Cytotoxicity against human PC3 cells after 7 days by MTT assay. Type of data set: functional. As to conditions: PC-3, 168 h, read-out: ED50 (the source's name). For orientation: Formazan colour is commonly taken as a measure of viable cells.
The test system of a further data set is A498. Kind of data set: Cytotoxicity against human A498 cells after 7 days by MTT assay. It is filed as functional. The conditions noted are these: A498, 168 h, read-out: ED50 (the source's name).
In another data set the test system is A549. Kind of data set: Cytotoxicity against human A549 cells after 7 days by MTT assay. Type of data set: functional. The conditions noted are these: A549, 168 h, read-out: ED50 (the source's name).
For the next data set, the system named is MCF7. Kind of data set: Cytotoxicity against human MCF7 cells after 7 days by MTT assay. It is filed as functional. The conditions noted are these: MCF7, 168 h, read-out: ED50 (the source's name).
The next data set concerns HT-29. Kind of data set: Cytotoxicity against human HT-29 cells after 7 days by MTT assay. The conditions noted are these: HT-29, 168 h, read-out: ED50 (the source's name). Type of data set: functional.

≈ marks a conversion by molar mass, not a printed value. Some results are limits rather than exact numbers.

For `CC(=O)O[C@H]1C[C@@H](OC(C)=O)[C@@]2(C)CO[C@@H]3[C@@H](O)[C@@]4(C)C5=CC[C@@H](c6ccoc6)[C@]5(C)CC[C@@H]4[C@]1(C)[C@@H]32`, the LC50 in the data set on Aedes aegypti amounted to 29.2 µg/mL (≈ 56.9 µM); in data set [1], 10 µg/mL (≈ 19.5 µM). Also, the EC50 amounted to 3.06 µg/mL (≈ 5.97 µM) in the data set with MIA PaCa-2; 2.78 µg/mL (≈ 5.42 µM) in the data set on PC-3; 3.35 µg/mL (≈ 6.53 µM) in the data set with A498; 3.29 µg/mL (≈ 6.42 µM) in the data set with A549; 2.42 µg/mL (≈ 4.72 µM) with MCF7; 3.73 µg/mL (≈ 7.28 µM) in the data set on HT-29.
For `CC(=O)O[C@H]1C[C@@H](OC(=O)c2ccccc2)C(C)(C)[C@@H]2C[C@@H](OC(C)=O)[C@@]3(C)C4=CC[C@@H](C5COC(C)(C)C(=O)C(=O)C5)[C@]4(C)CC[C@@H]3[C@@]12C` (some centres not stated), the EC50 in the data set on MIA PaCa-2 is 0.013 µg/mL (≈ 0.0188 µM); in the data set on PC-3, 0.0281 µg/mL (≈ 0.0407 µM); with A498, 4.78 µg/mL (≈ 6.92 µM); in the data set on A549, 1.07 µg/mL (≈ 1.55 µM); in the data set on MCF7, 6.13 µg/mL (≈ 8.87 µM); with HT-29 it was 6.25 µg/mL (≈ 9.05 µM).
As to `CC(=O)O[C@H]1C[C@@H](OC(=O)c2ccccc2)C(C)(C)[C@@H]2C[C@@H](OC(C)=O)[C@@]3(C)C4=CC(=O)[C@@H](C5COC(C)(C)C(=O)C(=O)C5)[C@]4(C)CC[C@@H]3[C@@]12C` (some centres not stated) [16,23,24-TRIKETOMELIANIN B], the EC50 was determined as 3.32 µg/mL (≈ 4.71 µM) in the data set with MIA PaCa-2; 2.1 µg/mL (≈ 2.98 µM) with PC-3; 4.15 µg/mL (≈ 5.89 µM) in the data set with A498; 18.2 µg/mL (≈ 25.8 µM) in the data set on A549; 2.61 µg/mL (≈ 3.7 µM) in the data set with MCF7; 6.36 µg/mL (≈ 9.02 µM) in the data set on HT-29.
With `COc1cccc2c1C(=O)c1c(O)c3c(c(O)c1C2=O)C[C@@](O)(C(=O)CO)C[C@@H]3O[C@H]1C[C@H](N)[C@H](O)[C@H](C)O1` [DOXORUBICIN], the EC50 in the data set on MIA PaCa-2 came out at 0.0133 µg/mL (≈ 0.0245 µM); in the data set on PC-3, 0.0276 µg/mL (≈ 0.0508 µM); with A498 it was 0.00424 µg/mL (≈ 0.0078 µM); in the data set on MCF7, 0.253 µg/mL (≈ 0.465 µM); in the data set on HT-29, 0.0351 µg/mL (≈ 0.0646 µM).
On to `CC(=O)O[C@H]1C[C@@H](OC(=O)c2ccccc2)C(C)(C)[C@@H]2C[C@@H](OC(C)=O)[C@@]3(C)C4=CC[C@@H](C5COC(C)(C)[C@@H](O)[C@H](O)C5)[C@]4(C)CC[C@@H]3[C@@]12C` (some centres not stated) [MELIANIN B], for which the median lethal concentration (LC50) (with Aedes aegypti; in data set [1]) was over 100 µg/mL in each case. Also, the EC50 in the data set with MIA PaCa-2 came out at 2.09 µg/mL (≈ 3.01 µM); in the data set on PC-3, 0.393 µg/mL (≈ 0.566 µM); with A498, 3.67 µg/mL (≈ 5.28 µM); in the data set with A549 it was 1.68 µg/mL (≈ 2.42 µM); in the data set with MCF7, 3.29 µg/mL (≈ 4.73 µM); in the data set on HT-29, 2.15 µg/mL (≈ 3.09 µM).
`CC(=O)O[C@H]1C[C@@H](OC(=O)c2ccccc2)C(C)(C)[C@@H]2C[C@@H](OC(C)=O)[C@@]3(C)C4=CC[C@@H](C5COC(=O)C5)[C@]4(C)CC[C@@H]3[C@@]12C` (some centres not stated) [MELIANIN C]: the EC50 with MIA PaCa-2 was 20.6 µg/mL (≈ 33.2 µM); in the data set on PC-3 it was 0.473 µg/mL (≈ 0.762 µM); in the data set on A498 it was 26.5 µg/mL (≈ 42.7 µM); with A549, 21.9 µg/mL (≈ 35.2 µM); with MCF7, 14.5 µg/mL (≈ 23.3 µM); with HT-29 it was 18.1 µg/mL (≈ 29.1 µM).
Consider `CC(=O)O[C@@H]1C[C@H](OC(=O)c2ccccc2)[C@@]2(C)[C@H]3[C@H](OC[C@]13C)[C@@H](O)[C@@]1(C)C3=CC[C@@H](c4ccoc4)[C@]3(C)CC[C@@H]12` [MELIAVOLKININ], for which the LC50 in the data set with Aedes aegypti was determined as 59.7 µg/mL (≈ 104 µM); in data set [1] it was 5.37 µg/mL (≈ 9.34 µM). The EC50 with MIA PaCa-2 was 16.7 µg/mL (≈ 29.1 µM); in the data set with PC-3, 1.02 µg/mL (≈ 1.77 µM); with A498, 26.9 µg/mL (≈ 46.8 µM); in the data set with A549 it was 25.4 µg/mL (≈ 44.1 µM); in the data set on MCF7, 27.8 µg/mL (≈ 48.4 µM); in the data set with HT-29 it was 28.1 µg/mL (≈ 48.8 µM).
